Results reported in patent US5770178A, “Metal chelate forming peptides and use thereof” (Nihon Medi-Physics Co., Ltd., priority 1994, dated 1998).
Where no end group is shown, it is not given here.

Columns and labels:
[1] = tested on: Tumor cells HEp2 (Human Epidermoid Carcinoma); test: Imaging of tumor in model mouse, tumor/muscle radioactivity ratio; format: in vivo, BALB/C nude mouse; conditions: i.v.
Experimental: Tumor cells HEp2 (5×10^6 cells, Human Epidermoid Carcinoma; ATCC No. CCL 23) were suspended in 1.0 ml of medium (Minimum essential medium (Eagle's) with Earle's BSS, 90% fetal bovine serum, 10%), and 100 μl of the suspension was subcutaneously injected to BALB/C nude mouse (6 weeks age) at the body side. […] Five and 20 minutes after the injection, the animal was imaged with a gamma camera.
Immediately after the imaging, the animal was sacrificed and examined for the distribution of the radioactivity in each organ using NaI single channel analyzer to determine a ratio of the radioactivity in tumor site to the radioactivity in muscle site (T/B ratio).

[2] = tested on: inflammation site (Staphylococcus aureus); conditions: S. aureus inflammation rat, i.v.
Experimental: Staphylococcus aureus 10^8 cells were suspended in 1 ml of physiological saline, and 100 μl of the suspension was intramuscularly administered to SD rats weighing about 220 g at the right calf. […] Thirty and 120 minutes after the peptide was injected, the animal was imaged with a gamma camera. Regions of interest were selected from the obtained image to determine a ratio T/B of the radioactivity in inflammation site (T) to the radioactivity in normal site (B).

| Substance | Imaging of tumor site (gamma camera) ([1]; 20 minutes after injection) | ratio of the radioactivity in tumor site to the radioactivity in muscle site (T/B ratio) ([1]; twenty minutes after injection, n=3) | Imaging of inflammation site (gamma camera) ([2]; 30 and 120 minutes after injection) | ratio T/B of the radioactivity in inflammation site (T) to the radioactivity in normal site (B) ([2]; regions of interest of image, n=6) |
| --- | --- | --- | --- | --- |
| Tc-99m-KYCAREPPTRTNAYWGQG (also: Tc-99m label) | clearly imaged | 4.50±0.71 | – | – |
| Tc-99m-KYCGGKTKPREQQYNSTYRVV-NH2 | – | – | clearly imaged | 3.26±0.18 |
